Laboratory results taken from US20260200971A1, “METHODS FOR ISOLATING, DETECTING, AND QUANTIFYING INTERCELLULAR PROTEINS” (Fred Hutchinson Cancer Center, priority 2022, published 2026).

Key:
MCF7:WS8 cells [1] = test: Click labeling and PEA (Olink Explore 3072) differential intercellular protein expression; type: cell-based
Experimental: PEA was used to quantify protein abundance in MCF7:WS8 cells treated with estradiol (1 nM) and fulvestrant concomitantly or with estradiol (1 nM) alone. Proteins from cells treated with or without fulvestrant were ranked by a log 2-fold change in abundance and by a false-discovery rate and identified.
The eluted protein fraction was then subjected to proximity extension assay-based quantification using the Olink® Explore protocol to quantify the abundance of proteins in a 3072-plex panel.
Intercellular protein discovery by the proximity extension assay and NPX normalized protein abundance calculation. Proteins were measured using the Olink® Explore 3072 panel (Olink Proteomics AB, Uppsala, Sweden) according to the manufacturer's instructions. For each experimental replicate, eighty microliters of elution solution (representing labeled proteins from eight hundred thousand cells), was used directly for the Olink Explore protocol.

TAMR cells = test: as above; type: cell-based; conditions: tamoxifen (100 nM) + estradiol versus estradiol, FDR<0.05, therapy resistant cells
Experimental: Three-dimensional cultures of MCF7:WS8 cells and TAMR cells were generated in 2% EHS matrix suspension. Spheroids were treated with either 1) estradiol (10 nM) or 2) estradiol (10 nM) and tamoxifen (100 nM). […] The eluted protein fraction was then subjected to proximity extension assay-based quantification using the Olink® Explore protocol to quantify the abundance of proteins in a 3072-plex panel.
First, a tamoxifen-induced protein signature was developed for each line by comparing how each cell line responded to tamoxifen treatment. Next, the log 2-fold change enrichment was quantified for cells treated with or without tamoxifen.
MCF7 cells were seeded, as described above, in estrogen-depleted 2% EHS matrix suspension culture (containing charcoal-stripped FBS and phenol red free) for 24 hours to create estrogen-starved spheroids. […]
Proteins were measured using the Olink® Explore 3072 panel (Olink Proteomics AB, Uppsala, Sweden) according to the manufacturer's instructions. […] Libraries were subjected to a bead-based purification and quality was assessed using an Agilent 2100 bioanalyzer (Agilent Technologies, Palo Alto, CA). […]
MCF7:PIK3CA-mutant cells = test: CyQuant proliferation assay, alpelisib dose response, PIK3CA mutant cells; type: cell-based; conditions: estrogen deprived conditions, 5 days
Experimental: (§1) Dose response curves are shown for three different MCF7 sublines (MCF7:WS8, MCF7:PIK3CA-mutant, MCF7:PIK3CA-WT) in response to treatment with fulvestrant or alpelisib. Proliferation was determined by a CyQuant genomic DNA quantification. Individual points represent the mean of n=8 replicate wells. Curves represent the least-squares fit of the Hill equation. Error bands represent the 95% confidence interval of the fit, as determined using the gradient method.
(§2) The MCF7 cell line harbors two activating E545K mutant PIK3CA alleles. To evaluate the relationship between PIK3CA mutation, AREG expression, and drug resistance, the MCF7 parental line was compared to a previously published isogenic MCF7 line with a wildtype (WT) PIK3CA knock in, which has both mutant alleles corrected (see Beaver et al., Clin. Cancer Res. 19:5413-5422, 2013). […] Then, under estrogen deprived conditions, the growth of MCF7 PIK3CA mutant or MCF7:PIK3CA-WT cells was assessed over 5 days in the presence of varying doses of alpelisib (a PI3K inhibitor) (FIGS. 9B and 9C). Proliferation was quantified by an end-point genomic DNA quantification (CyQuant), and then the concentration-response curve was fit to a Hill equation to extract the IC50 and the asymptotic proliferation in the limit of infinite drug […].

MCF7:PIK3CA-WT cells = test: CyQuant proliferation assay, alpelisib dose response, PIK3CA-WT cells; type: cell-based; conditions: estrogen deprived conditions, 5 days
Experimental: as §1, §2

Claudin 7 = test: Streptavidin bead capture, elution and Claudin 7 western blot; design: species or system human; conditions: HCC70 spheroids, mild competitive elution with free biotin versus denaturing elution
Experimental: After lysing the spheroids, biotinylated or desthiobiotinylated proteins were captured using streptavidin-functionalized magnetic polystyrene beads. The unbound fraction was also collected to evaluate the capture efficiency. […] This competitive elution was performed in two sequential incubations at 37° C. and 4° C. The recovery of Claudin 7 was used to evaluate the efficiency with which full-length intercellular proteins were released from the magnetic bead. Claudin 7 is a well-known tight-junction protein associated with intercellular adhesions (FIG. 4A), and it is localized to the pericellular zones in HCC70 spheroids (FIG. 4D). Next, western blots against Claudin 7 were performed in the eluted fraction from the streptavidin pull-down, and the signal intensity of Claudin 7 from the 15 μg of HCC70 spheroid starting lysate was evaluated. […] Streptavidin magnetic bead enrichment. […] For every 100 μL of sample, 200 μL of the 10 mg/mL magnetic bead suspension were used. […] Next a magnetic bead pellet was prepared by separating the beads on a magnetic stand and removing the supernatant. […] Western blot and dot blot quantification. Western blot quantification was performed using ImageJ. […] Integrated fluorescence intensity was calculated using the “Measure” tool, and the background-corrected integrated fluorescence intensity was computed for each band.

HCC70 spheroids [2] = test: Streptavidin dot blot of lysates from labeled 3D cultures; type: cell-based; conditions: for streptavidin binding signal, hydrogels containing HCC70 cells versus cell-free EHS matrix: fully embedded EHS matrix hydrogel (7-10 mg/mL protein)
Experimental: To evaluate the extent to which the streptavidin signal produced was due to reactions with azide-labeled proteins, HCC70 breast cancer cell spheroids were cultured in 2% EHS matrix suspension culture with or without azidohomoalanine.
To assess the specificity of the labeling, streptavidin dot blots were performed with homogeneous lysates prepared from each of the labeling conditions. Additionally, unlabeled lysate was included to account for non-specific binding of the streptavidin reagent, itself. […] As a non-specific reaction control, the same labeling conditions were evaluated in “empty” EHS matrix hydrogels, which contained no cells. […] After labeling and washing the samples, homogeneous lysates of all conditions were prepared.
Generation of fully embedded 3D HCC70 cultures. HCC70 spheroids were first seeded in suspension in 2% EHS matrix (following one passage in 3D suspension culture). After allowing spheroids to form for 24 hours, the spheroids were pelleted, the supernatant was aspirated, and the spheroids were directly resuspended in ice-cold EHS matrix (undiluted from the manufacturer's preparation at a typical concentration of 7-10 mg/mL). Resuspension was achieved by slow pipetting up and down forty times on ice with pipette tips that were pre-chilled at −20° C. Next, EHS matrix “domes” were created by pipetting thirty microliters of the EHS matrix/spheroid suspension directly into the center of the well of a 24-well plate with a No. 1.5 polymer coverglass bottom. The plate was flipped upside down to prevent spheroids from settling onto the coverglass, and the plate was incubated at 37° C., 5% CO2, for 1 hour to allow the EHS matrix to form an elastic hydrogel. The domes were then covered with complete cell culture media (1 mL per well) and cultured at 37° C., 5% CO2.
Streptavidin dot blot analysis. Spheroid lysates were prepared as described above. […]

[3] = system: Laminin B1, Laminin C1, and Nidogen; test: LC/MS label-free quantification of EHS matrix proteins in eluted fraction versus starting lysate; conditions: HCC70 spheroids, 2% EHS matrix, streptavidin enrichment and elution with free biotin
Experimental: Compositions of the EHS matrix vary from lot-to-lot, but three of the most abundant proteins EHS matrix preparations are known to be Laminin B1, Laminin C1, and Nidogen. LC/MS proteomics were performed on crude lysates prepared from organotypic cultures of HCC70 spheroids in 2% EHS matrix. As expected, the most abundant proteins in these crude lysates were the EHS matrix proteins, Laminin B1, Laminin Cl, and Nidogen (FIG. 5A). This was true regardless of whether the peptide search was performed against the human or mouse proteome, due to high sequence homology of these proteins between both species. […] Protein concentration of crude lysates was determined using a Pierce BCA assay kit (Thermo Fisher Scientific #23225) according to the manufacturer's protocol. […] Desalted samples were brought up in 2% acetonitrile in 0.1% formic acid and were analyzed by LC/ESI MS/MS with a Thermo Scientific Easy-nLC 1000 (Thermo Scientific, Waltham, MA) nano HPLC system coupled to a tribrid Orbitrap Fusion (Thermo Scientific, Waltham, MA) mass spectrometer. […] Label-free quantification data analysis of LC/MS samples. […] In the specific case in which the abundance of EHS matrix proteins was evaluated, a search was also performed against the Uniprot Mus musculus files (however, due to sequence homology the same conclusions were drawn regardless of whether the Mus musculus database was included in the search). […]

HCC70 spheroids [4] = test: Confocal fluorescence microscopy of probe labeling in 3D spheroid culture with 2% EHS matrix; type: cell-based; conditions: azidohomoalanine 24 hours, probe 30 minutes at 37 degrees Celsius, streptavidin Alexa-Fluor 488
Experimental: To do this, 3D organotypic suspension cultures of the HCC70 breast cancer cell line were generated in the presence of EHS matrix. Next, spheroids were labeled with 500 pM azidohomoalanine for 24 hours, and after washing excess reagent, incubated the spheroids with each of the heterobifunctional probes (three hundred micromolar concentration, 30 minutes at 37 degrees Celsius). […] The samples were also counterstained with DAPI and Phalloidin to visualize the nuclei and the cell surface (F-actin in the HCC70 cells is subcortically localized near the membrane). Lastly, confocal fluorescence microscopy was used to qualitatively assess the spatial distribution of streptavidin labeling in all conditions (FIG. 2).
Azidohomoalanine labeling of 3D HCC70 cultures in 2% EHS matrix. 3D suspension cultures of HCC70 cells in 2% EHS matrix were generated from 2D monolayer culture (as described above), dissociated once, and then plated in fresh 2% EHS matrix. After 48 hours of culture, spheroids were washed three times to remove excess methionine by centrifuging at 200×g for 3 minutes, aspirating the supernatant and resuspending in PBS (with calcium and magnesium). Azidohomoalanine containing media was freshly prepared by diluting a 500 mM azidohomoalanine DMSO stock solution 1,000-fold in methionine reduced 2% EHS matrix suspension media. The washed spheroids were resuspended in azidohomoalanine-containing 2% EHS matrix suspension media (in the same volume as the original suspension), plated in 6-well ultra-low attachment plates, and incubated in TC incubator at 37° C., 5% CO2 for 24 hours.
Spheroids were cultured for 24 hours in the presence of azidohomoalanine to allow the azidohomoalanine to be incorporated into newly synthesized proteins at methionine residues. After 24 hours, spheroids were washed three times with PBS (containing calcium and magnesium) to remove unincorporated azidohomoalanine by centrifugation at 200×g for 1 minute, aspiration of the supernatant, and resuspension in the PBS wash buffer. […]

Streptavidin = Streptavidin (Streptomyces avidinii, UniProt P22629); conditions: binding to streptavidin; cited from earlier work
Chain of Streptavidin (P22629 25-183, species assumed): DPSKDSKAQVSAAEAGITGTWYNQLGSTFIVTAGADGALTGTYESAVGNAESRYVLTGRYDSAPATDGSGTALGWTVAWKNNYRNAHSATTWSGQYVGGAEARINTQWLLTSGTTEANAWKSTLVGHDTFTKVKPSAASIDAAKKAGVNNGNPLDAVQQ
MCF7:WS8 cells [5] = test: CyQuant genomic DNA proliferation assay, fulvestrant dose response; type: cell-based; conditions: estradiol 1 nM; for IC50: Hill equation fit
Experimental: as §1
Given that AREG induction by estradiol supports estradiol-dependent proliferation, the expectation was that constitutive overexpression of AREG would confer resistance to drugs that inhibit estrogen signaling (e.g., fulvestrant). […] The proliferation of each cell line was evaluated in the presence of estradiol (1 nM) and varying concentrations of fulvestrant using a genomic DNA quantification assay (CyQuant). The Hill equation was then used to determine the IC50 of each cell line following fulvestrant treatment (FIG. 9A). […] Therefore, targeting AREG signaling may alleviate endocrine therapy resistance.

[6] = system: breast epithelial MCF10A cells; conditions: 2D culture, exogenous media supplement; cited from earlier work

With `C[C@]12CC[C@@H]3c4ccc(O)cc4CC[C@H]3[C@@H]1CC[C@@H]2O` [estradiol] the “number of proteins upregulated by at least 2-fold” value (MCF7:WS8 cells [1]; estradiol versus estrogen-deprived controls, FDR<0.05) was “at least 188 proteins”.

In the case of `CC/C(=C(\c1ccccc1)c1ccc(OCCN(C)C)cc1)c1ccccc1` [tamoxifen], the “number of proteins upregulated at least 2-fold in response to tamoxifen” value (TAMR cells) is reported as “forty-three” and the “number of proteins upregulated at least 2-fold in response to tamoxifen” value (MCF7:WS8 cells [1]; tamoxifen (100 nM) + estradiol versus estradiol, FDR<0.05, therapy sensitive cells) is reported as “Thirty”.

With `Cc1nc(NC(=O)N2CCC[C@H]2C(N)=O)sc1-c1ccnc(C(C)(C)C(F)(F)F)c1` [alpelisib] the “increase in IC50 by AREG overexpression” value (MCF7:PIK3CA-mutant cells) was 4 fold and the “effect of AREG overexpression on alpelisib response” value (MCF7:PIK3CA-WT cells) was “no effect”.

In the case of DBCO-PEG4-Desthiobiotin, the “recovery of Claudin 7 compared to the DBCO-sulfo-biotin samples” value (Claudin 7) is reported as 10 fold, the “streptavidin binding signal, hydrogels containing HCC70 cells versus cell-free EHS matrix” value (HCC70 spheroids [2]) is reported as 10 fold and the “lower normalized abundance of Laminin B1, Laminin C1 and Nidogen versus starting lysates” value [3] is reported as “over 10 fold”. The “labeling of the pericellular zone / intercellular spaces” value (HCC70 spheroids [4]) was “exhibited pericellular labeling”.

For `C[C@@H]1NC(=O)N[C@@H]1CCCCCC(=O)O` [Desthiobiotin], the Kd (Streptavidin) is listed as 0.66 nM, the Koff (Streptavidin) is listed as 0.018 s⁻¹ and the Kon (Streptavidin) is listed as 2.7e7 1/M 1/s.

For DBCO-sulfo-Biotin, the “labeling of the pericellular zone / intercellular spaces” value (HCC70 spheroids [4]) was “exhibited pericellular labeling”.

With `O=C1N[C@H]2[C@H](CS[C@H]2CCCCC(=O)ON2C(=O)CC(S(=O)(=O)[O-])C2=O)N1.[Na+]` (stereo partly drawn) [sulfo-NHS-biotin] the “streptavidin binding signal, hydrogels containing HCC70 cells versus cell-free EHS matrix” value (HCC70 spheroids [2]) was “equal” and the “labeling of the pericellular zone / intercellular spaces” value (HCC70 spheroids [4]) was “unable to diffuse into intercellular zones of the organoids”.

For `C[C@]12CC[C@@H]3c4ccc(O)cc4C[C@@H](CCCCCCCCC[S+]([O-])CCCC(F)(F)C(F)(F)F)[C@H]3[C@@H]1CC[C@@H]2O` (stereo partly drawn) [fulvestrant], the IC50 (MCF7:WS8 cells [5]; MCF7:WS8, AREG overexpression line) was 255 nM, the IC50 (MCF7:WS8 cells [5]; MCF7:WS8, control line (ORF stuffer)) was 34 nM and the “increase in IC50, AREG overexpression versus control” value (MCF7:WS8 cells [5]) was 7.5 fold. For the same molecule, the “most significantly upregulated intercellular protein” value (MCF7:WS8 cells [1]; estradiol (1 nM) + fulvestrant versus estradiol (1 nM) alone, FDR<0.05) was “ITGB6”.

For `[N-]=[N+]=NCC[C@H](N)C(=O)O` [azidohomoalanine], the “streptavidin binding versus non-labeled azidohomoalanine controls” value (HCC70 spheroids [2]; 2% EHS matrix suspension, DBCO-PEG4-Desthiobiotin labeling) was 10 fold.

B1: recombinant amphiregulin: recombinant amphiregulin (AREG), EGF receptor family ligand (protein, UniProt P15514 101-187, looked up)
Amphiregulin: SVRVEQVVKPPQNKTESENTSDKPKRKKKGGKNGKNRRNRKKKNPCNAEFQNFCIHGECKYIEHLEAVTCKCQQEYFGERCGEKSMK
modifications: Amphiregulin
notes: recombinant amphiregulin (AREG), EGF receptor family ligand
For B1, the “concentrations at which activity is exhibited” value [6] is listed as 5 to 50 ng/mL.
